# Assay results: patent US5200393A, “Lipid excipient for nasal delivery and topical application” (The Liposome Company, Inc., priority 1991, dated 1993)
# What was measured:
# [1] = Nasal delivery of insulin in MOPE excipient to diabetic rats, serum insulin radioimmunoassay; format: in vivo, rat
# Method: The insulin-MOPE solution of Example 4 was instilled into the nasal cavity of rats according to the methods of Example 3. Right Sprague-Dawley male 300 g rats which had been made diabetic according to the methods of Weiner et al., 1985, J. Pharm. Sci., 74:922-925 were used. Blood samples were collected after one hour and serum separated according to standard methods as in Example 3. The serum was analyzed for insulin using the Coat-A-CountInsulin ^125 I radioimmunoassay (Diagnostic Products Corp., Los Angeles, Calif.).
# MOPE (80.0 mg) in chloroform was dried down to a lipid film on a round bottom flask at 37° C. in a water bath. The film was resuspended in 10.0 ml of distilled water which had been pH adjusted to pH 9.0 with about 20-50 uL of 0.1N sodium hydroxide (NaOH). Four mg of porcine insulin powder (Eli Lilly, Indianapolis, Ind.) supplied as 25 U/mg, was admixed with the MOPE solution and vortically mixed, creating a 0.8% MOPE insulin gel. The resulting gel was administered to diabetic rats according to the methods of Example 5. […] The methods of the above Example were repeated, dilutions were made to result in 10 ml of each of 0.4%, 0.2%, and 0.1% MOPE, 4.0 mg of insulin being admixed with these MOPE samples as well, the complete results from serum insulin concentrations of each sample plotted together in FIG. 2. […]
# [2] = Nasal delivery of calcitonin in MOPE excipient to rats, serum calcium; format: in vivo, rat; settings: MOPE used as the excipient delivery vehicle; FIG. 1; change in serum calcium after one and three hours
# Method: Eight Wistar Kyoto male rats, weighing 250-300 g were anesthetized with a 20% solution of urethane administered in a divided dose of 1/6 g/kg, administered intraperitoneally (IP).
# The rats were surgically prepared for nasal sample instillation according to the Harai method (Hussain et al., 19800, J. Pharm. Sci., 69(12):1411-1413. A pre-drug blood sample was taken from each rat (1.0 ml drawn from retroorbital site) and allowed to clot, and the serum separated by standard technique.
# The calcitonin-MOPE solution (single 50 uL doses per rate) were administered by inserting a syringe containing the sample into the rats nostril, and injecting. A blood sample was obtained from each rat after one and three hours, and assayed for serum calcium.
# Serum calcium was determined colorimetrically by the Sigma Diagnostics Calcium Kit No. 587 (Sigma, St. Louis, Mo.). The change in serum calcium levels compared to pre-drug controls was plotted as a function of time. (FIG. 1)
compound,measurement,setting,value
"CCCCCCCC/C=C\CCCCCCCC(=O)OC[C@@H](O)COP(=O)(O)OCCN [MOPE, 1-oleoyl lysophosphatidylethanolamine]",lipid concentration at which enhanced drug absorption of insulin occurs,"[1]; excipient at about pH 7.0, cloudy fluid",about 0.8%
same,MOPE concentration that has most efficacy for penetration enhancement of insulin,"[1]; pH 9.0, in distilled water",0.2%
same,enhancement of calcitonin through the nasal mucosa,[2],enhancement
